Results as given in ChEMBL document CHEMBL4699551, “Bromotryptamine and Imidazole Alkaloids with Anti-inflammatory Activity from the Bryozoan Flustra foliacea” (J Nat Prod, 2020).
Active and inactive are the calls of the source. The calls are words filed in the database; no cut-off is given here.

Key:
Dendritic cell [1] = test: Antiinflammatory activity in human monocytes-derived dendritic cells assessed as increase in IL-10 secretion at 10 ug/ml after 24 hrs by ELISA method relative to control; assay type: functional
Dendritic cell [2] = test: Antiinflammatory activity in human monocytes-derived dendritic cells assessed as decrease in IL-12p40 secretion at 10 ug/ml after 24 hrs by ELISA method relative to control; assay type: functional
Dendritic cell [3] = test: Cytotoxicity against human monocytes-derived dendritic cells assessed as reduction in cell viability after 10 ug/ml after 24 hrs by trypan blue staining based assay; details: dose 10 µg/ml
Dendritic cell [4] = test: Antiinflammatory activity in human monocytes-derived dendritic cells assessed as decrease in IL-12p40 secretion after 24 hrs by ELISA method relative to control; assay type: functional, cell-based

Structure (SMILES)	Activity (Dendritic cell [1]; dose 10.0 µg/ml)	Activity (Dendritic cell [2]; dose 10.0 µg/ml)	Activity (Dendritic cell [3])	Activity (Dendritic cell [2]; dose 10 µg/ml) [%]	other results
CC(C)=CC[C@@]12CCN(C)[C@@H]1Nc1cc(Br)ccc12	inactive	inactive	–	–	–
C/C(=C\C(=O)NCCc1c[nH]cn1)CCCC(C)(C)O	–	–	–	–	Activity (Dendritic cell [1]; dose 10 µg/ml): 19%
C=CC(C)(C)c1c(CCNC)c2ccc(Br)cc2n1C.O=C(O)C(F)(F)F	–	–	Non-Toxic	45	–
C=CC(C)(C)[C@@]12CCN[C@@H]1Nc1cc(Br)ccc12	inactive	inactive	–	–	–
CC(C)=CC[C@@]12CCN(C)[C@@H]1N(C(O)C(O)C(C)(C)O)c1cc(Br)ccc12 (some centres not stated)	inactive	inactive	–	–	–
CC(C)=CCN1c2cc(Br)ccc2[C@]2(CC=C(C)C)CCN(C)[C@H]12	inactive	inactive	–	–	–
C=CC(C)(C)[C@@]12CCN(C)C1=Nc1cc(Br)ccc12	inactive	inactive	–	–	–
C=CC(C)(C)[C@@]12CCN(C)[C@@H]1N(C(O)C(O)C(C)(C)O)c1cc(Br)ccc12 (some centres not stated)	inactive	inactive	–	–	–
CO[C@H](c1[nH]c2cc(Br)ccc2c1CCN(C)C)[C@@H](O)C(C)(C)O	–	–	Non-Toxic	45	–
CN(C)CCc1c[nH]c2cc(Br)ccc12.O=C(O)C(F)(F)F	–	–	Non-Toxic	45	–
O=C(O)C(F)(F)F.O=Cc1c[nH]c2cc(Br)ccc12	–	–	Non-Toxic	45	–
CNCCc1cn(CC=C(C)C)c2cc(Br)ccc12.O=C(O)C(F)(F)F	–	–	Non-Toxic	45	IC50 (Dendritic cell [4]): 2.9 µM
CC(C)=CC[C@@]12CCN(C)[C@@H]1N(CC(O)C(C)(C)O)c1cc(Br)ccc12 (some centres not stated)	inactive	inactive	–	–	–
C=CC(C)(C)C(=O)Nc1cc(Br)ccc1C(=O)O	–	–	Non-Toxic	45	–
CC(C)C(=O)c1c(CCN(C)C)c2ccc(Br)cc2[nH]c1=O	–	–	Non-Toxic	45	–
C=CC(C)(C)c1[nH]c2cc(Br)ccc2c1CC[N+]1(C)CCOC1 (configuration not stated)	–	–	Non-Toxic	45	–
CC1=C[C@H]2[C@@H]([C@@H](c3[nH]c4cc(Br)ccc4c3CCN(C)C)[C@]34CC[N+](C)(C)[C@]23Nc2cc(Br)ccc24)C(C)(C)C1 (relative stereo)	–	–	–	–	Activity (Dendritic cell [1]; dose 10 µg/ml): 19%
C=CC(C)(C)[C@@]1(CCNC)C(=O)Nc2cc(Br)ccc21	inactive	inactive	–	–	–
C=CC(C)(C)[C@@]12CCN(C)[C@@H]1N(C(OC)C(O)C(C)(C)O)c1cc(Br)ccc12 (some centres not stated)	inactive	inactive	–	–	–
C=CC(C)(C)[C@@]12CCN(C)[C@@H]1N(CC=C(C)C)c1cc(Br)ccc12	inactive	inactive	–	–	–
C=CC(C)(C)[C@@]12CCN(C)[C@@H]1N(CC(O)C(C)(C)O)c1cc(Br)ccc12 (some centres not stated)	inactive	inactive	–	–	–
CNCC[C@]1(O)C(=O)N(CC=C(C)C)c2cc(Br)ccc21	inactive	inactive	–	–	–
CC(C)=CC[C@@]12CCN(C)[C@@H]1Nc1c(Br)ccc(O)c12	inactive	inactive	–	–	–
C=CC(C)(C)[C@@]12CCN(C)[C@@H]1N(C)c1cc(Br)ccc12	inactive	inactive	–	–	–
